Data on 11 molecules can be found in US11999759B2, “Boronic acid derivatives and therapeutic uses thereof” (Qpex Biopharma, Inc., priority 2016, dated 2024).

Experiment [1] concerns PAM1154/KPC-2 (lacked MexAB-OprM). As to the kind of experiment: Biapenem potentiation (MPC64) in PAM1154/KPC-2. The class given is cell-based, Pseudomonas aeruginosa. Also noted: PAM1154/KPC-2 Biapenem MPC64: unit not given here. The conditions noted are these: BLI potency to decrease biapenem MIC 64-fold, from 32 to 0.5 μg/ml; efflux deficient strain. Here is the method: (§1) Efflux of BLIs from Pseudomonas aeruginosa by the MexAB-OprM efflux pump was also evaluated. The plasmid expressing the gene encoding KPC-2 was introduced into two strains of P. aeruginosa, PAM1032 and PAM1154 that overexpressed or lacked MexAB-OprM, respectively. Due to expression of KPC-2 both strains became resistant to biapenem. […] Potency of BLIs to potentiate biapenem in these strains was determined. […] The ratio of MPC64 values for each BLI in PAM1032/KPC-2 (efflux proficient) and PAM1154/KPC-2 (efflux deficient) was determined to generate the Efflux Index (EI) as shown in Table 8.

For experiment [2], the target named is P99 (Enterobacter cloacae, UniProt P05364). As to the kind of experiment: biochemical. The conditions noted are these: nitrocefin reporter substrate; 10 min preincubation at room temperature; read-out: Ki (P99, NCF). How it is done: (§2) Ki values of inhibition of purified class A, C and D enzymes were determined spectrophotometrically using nitrocefin as reporter substrate. Purified enzymes were mixed with various concentrations of inhibitors in reaction buffer and incubated for 10 min at room temperature. Nitrocefin was added and substrate cleavage profiles were recorded at 490 nm every 10 sec for 10 min.
Chain of P99 (P05364 21-381): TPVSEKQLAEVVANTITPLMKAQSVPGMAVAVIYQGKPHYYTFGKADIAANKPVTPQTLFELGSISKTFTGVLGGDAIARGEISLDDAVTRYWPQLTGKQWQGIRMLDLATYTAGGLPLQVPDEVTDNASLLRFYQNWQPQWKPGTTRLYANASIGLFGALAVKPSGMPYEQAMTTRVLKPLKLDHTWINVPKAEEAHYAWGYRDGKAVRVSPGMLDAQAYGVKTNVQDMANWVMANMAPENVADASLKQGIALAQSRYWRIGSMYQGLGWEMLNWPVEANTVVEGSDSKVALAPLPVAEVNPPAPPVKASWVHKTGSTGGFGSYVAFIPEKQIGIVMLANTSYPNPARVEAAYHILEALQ

Experiment [3] concerns the target Pa-AmpC (Pseudomonas aeruginosa, UniProt P24735). As to the kind of experiment: biochemical. The note with it: nitrocefin reporter substrate; 10 min preincubation at room temperature; read-out: Ki (Pa-AmpC, NCF). How it is done:
as §2

The target in experiment [4] is NDM-1 (Klebsiella pneumoniae, UniProt C7C422). As to the kind of experiment: Inhibition of imipenem cleavage by purified NDM-1. The conditions noted are these: imipenem reporter substrate; 37° C.; read-out: Ki (NDM-1, IMI). Format: biochemical. How it is done: Purified enzymes were mixed with various concentrations of inhibitors in reaction buffer and incubated for 10 min at room temperature. Imipenem was added and substrate cleavage profiles were recorded at 294 nm every 30 seconds for 30 minutes at 37° C.
Chain of NDM-1 (C7C422 29-270, looked up, species assumed): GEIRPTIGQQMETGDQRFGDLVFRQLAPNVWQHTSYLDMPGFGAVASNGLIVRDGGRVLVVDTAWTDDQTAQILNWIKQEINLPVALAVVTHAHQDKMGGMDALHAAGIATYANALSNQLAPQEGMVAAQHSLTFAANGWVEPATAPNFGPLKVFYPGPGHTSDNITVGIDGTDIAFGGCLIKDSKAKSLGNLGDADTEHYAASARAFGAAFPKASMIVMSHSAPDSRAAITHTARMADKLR

Experiment [5] has as its target VIM-1 (Pseudomonas aeruginosa, UniProt A0A0F7KYQ8). The experiment can be described thus: Inhibition of nitrocefin cleavage by purified VIM-1. The conditions noted are these: nitrocefin reporter substrate; 10 min preincubation at room temperature; read-out: Ki (VIM-1, NCF). The class given is biochemical.
Experiment [6] addresses CTX-M-14 (Escherichia coli, UniProt Q9L5C7). The experiment can be described thus: Inhibition of nitrocefin cleavage by purified CTX-M-14. The class given is biochemical. The note with it: nitrocefin reporter substrate; 10 min preincubation at room temperature; read-out: Ki (CTX-M-14, NCF). Here is the method:
as §2

Experiment [7] has as its target KPC-2 (Klebsiella pneumoniae, UniProt Q9F663). As to the kind of experiment: Inhibition of nitrocefin cleavage by purified KPC-2. Format: biochemical. The conditions noted are these: nitrocefin reporter substrate; 10 min preincubation at room temperature; read-out: Ki (KPC-2, NCF). Here is the method: (§3) Ki values of inhibition of purified class A, C and D enzymes were determined spectrophotometrically using nitrocefin as reporter substrate. Purified enzymes were mixed with various concentrations of inhibitors in reaction buffer and incubated for 10 min at room temperature. Nitrocefin was added and substrate cleavage profiles were recorded at 490 nm every 10 sec for 10 min. These experiments confirmed that the described compounds are inhibitors with a broad-spectrum of activity towards various β-lactamases.

The test system of experiment [8] is PAM1032/KPC-2 (overexpressed MexAB-OprM). The experiment can be described thus: Biapenem potentiation (MPC64) in PAM1032/KPC-2. The class given is cell-based, Pseudomonas aeruginosa. Set-up: PAM1032/KPC-2 Biapenem MPC64: unit not given here. The conditions noted are these: BLI potency to decrease biapenem MIC 64-fold, from 32 to 0.5 μg/ml; efflux proficient strain. Here is the method:
as §1

In experiment [9] the target is OXA-48 (Klebsiella pneumoniae, UniProt Q6XEC0). The experiment can be described thus: Inhibition of nitrocefin cleavage by purified OXA-48. Format: biochemical. The conditions noted are these: nitrocefin reporter substrate; 10 min preincubation at room temperature; read-out: Ki (OXA-48, NCF). How it is done:
as §3

Experiment [10] has as its target OXA-23 (Acinetobacter baumannii, UniProt Q9L4P2). As to the kind of experiment: Inhibition of nitrocefin cleavage by purified OXA-23. Format: biochemical. The note with it: nitrocefin reporter substrate; 10 min preincubation at room temperature; read-out: Ki (OXA-23, NCF). Here is the method:
as §3

In experiment [11] the target is IMP-1 (Serratia marcescens, UniProt P52699). The experiment can be described thus: Inhibition of imipenem cleavage by purified IMP-1. Format: biochemical. The conditions noted are these: imipenem reporter substrate; 37° C.; read-out: Ki (IMP-1, IMI). Here is the method:
Ki values of inhibition of purified class B enzymes NDM-1 and IMP-1 were determined spectrophotometrically using imipenem as reporter substrate. Purified enzymes were mixed with various concentrations of inhibitors in reaction buffer and incubated for 10 min at room temperature. Imipenem was added and substrate cleavage profiles were recorded at 294 nm every 30 seconds for 30 minutes at 37° C. These experiments further confirmed that the described compounds have the ability to inhibit carbapenemase activity of metallo-beta-lactamases.

Chain of CTX-M-14 (Q9L5C7 29-291, species assumed): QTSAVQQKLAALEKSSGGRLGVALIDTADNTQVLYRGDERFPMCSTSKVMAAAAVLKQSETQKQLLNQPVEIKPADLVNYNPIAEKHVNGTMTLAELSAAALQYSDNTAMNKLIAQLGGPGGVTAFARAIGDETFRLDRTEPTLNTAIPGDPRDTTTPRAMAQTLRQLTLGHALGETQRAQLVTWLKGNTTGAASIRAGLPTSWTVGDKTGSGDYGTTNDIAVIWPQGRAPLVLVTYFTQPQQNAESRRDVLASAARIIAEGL
Chain of OXA-23 (Q9L4P2 18-273): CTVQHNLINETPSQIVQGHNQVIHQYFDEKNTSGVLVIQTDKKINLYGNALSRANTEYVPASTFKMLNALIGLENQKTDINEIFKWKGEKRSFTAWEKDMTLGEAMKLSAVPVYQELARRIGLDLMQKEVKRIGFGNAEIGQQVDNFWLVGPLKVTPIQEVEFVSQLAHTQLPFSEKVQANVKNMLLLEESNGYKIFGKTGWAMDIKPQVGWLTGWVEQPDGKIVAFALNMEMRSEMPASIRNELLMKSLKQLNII
Chain of IMP-1 (P52699 19-246, looked up, species assumed): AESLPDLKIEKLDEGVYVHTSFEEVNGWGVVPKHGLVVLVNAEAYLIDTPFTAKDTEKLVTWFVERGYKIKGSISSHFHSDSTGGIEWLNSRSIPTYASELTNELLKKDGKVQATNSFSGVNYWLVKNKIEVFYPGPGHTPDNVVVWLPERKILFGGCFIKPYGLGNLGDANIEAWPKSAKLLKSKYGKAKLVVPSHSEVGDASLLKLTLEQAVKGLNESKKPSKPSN
Chain of OXA-48 (Q6XEC0 23-265, looked up): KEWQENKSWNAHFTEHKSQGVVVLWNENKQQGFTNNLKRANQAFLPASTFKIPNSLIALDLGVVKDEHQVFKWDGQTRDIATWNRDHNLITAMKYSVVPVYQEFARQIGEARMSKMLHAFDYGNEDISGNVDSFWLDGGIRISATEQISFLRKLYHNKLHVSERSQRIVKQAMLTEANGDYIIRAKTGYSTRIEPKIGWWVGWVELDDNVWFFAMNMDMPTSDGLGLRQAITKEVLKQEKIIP
Chain of KPC-2 (Q9F663 25-293 limits assumed): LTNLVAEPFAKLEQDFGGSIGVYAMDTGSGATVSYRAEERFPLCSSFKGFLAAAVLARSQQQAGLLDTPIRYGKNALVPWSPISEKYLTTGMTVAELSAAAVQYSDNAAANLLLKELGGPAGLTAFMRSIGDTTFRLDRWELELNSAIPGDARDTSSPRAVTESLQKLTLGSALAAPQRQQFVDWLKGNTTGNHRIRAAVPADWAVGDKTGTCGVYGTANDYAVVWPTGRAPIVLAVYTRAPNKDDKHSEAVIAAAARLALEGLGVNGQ
Chain of Pa-AmpC (P24735 27-397): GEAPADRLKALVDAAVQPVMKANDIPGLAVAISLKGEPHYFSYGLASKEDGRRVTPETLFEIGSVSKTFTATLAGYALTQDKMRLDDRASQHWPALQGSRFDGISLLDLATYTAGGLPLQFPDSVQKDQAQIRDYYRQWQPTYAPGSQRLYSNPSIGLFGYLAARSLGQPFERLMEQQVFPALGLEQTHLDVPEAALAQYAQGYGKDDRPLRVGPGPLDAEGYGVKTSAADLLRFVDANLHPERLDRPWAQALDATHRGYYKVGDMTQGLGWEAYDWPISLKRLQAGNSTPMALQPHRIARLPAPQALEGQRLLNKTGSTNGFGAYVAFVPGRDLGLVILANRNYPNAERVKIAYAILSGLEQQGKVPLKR

As to `COc1ccc2c(c1C(=O)O)OB(O)C1(CO)CC21` (stereo not drawn) [Compound 22, 2,2-dihydroxy-1a-(hydroxymethyl)-5-methoxy-1,7b-dihydrocyclopropa[c][1,2]benzoxaborinine-4-carboxylic acid], the “PAM1154/KPC-2 Biapenem MPC64” value in experiment [1] amounted to 10. For the same molecule, the inhibition constant (Ki) in experiment [2], in experiment [3], in experiment [4], in experiment [5], in experiment [6] and in experiment [7] was less than 100 nM throughout. Besides, the results for the Ki in experiment [9], in [10] and in experiment [11] were less than 100 nM, greater than 1000 nM and less than 100 nM, respectively. The “PAM1032/KPC-2 Biapenem MPC64” value in [8] amounted to 20.
On to `O=C(O)c1cccc2c1OB(O)[C@@H]1C[C@H]21` [Compound 16, (1aR,7bS)-2,2-dihydroxy-1a,7b-dihydro-1H-cyclopropa[c][1,2]benzoxaborinine-4-carboxylic acid], for which the “PAM1154/KPC-2 Biapenem MPC64” value in [1] is listed as 0.3. Moreover, the Ki in [2], in [3], in experiment [4], in experiment [5], in [6] and in experiment [7] was less than 100 nM each time. The Ki in [9], in experiment [10] and in experiment [11] was less than 100 nM throughout. In addition, the “PAM1032/KPC-2 Biapenem MPC64” value in experiment [8] is listed as 1.25.
For the molecule `O=C(O)c1c(F)c(F)cc2c1OB(O)C1CC21` (stereo not drawn) [Compound 19, 5,6-difluoro-2,2-dihydroxy-1a,7b-dihydro-1H-cyclopropa[c][1,2]benzoxaborinine-4-carboxylic acid], the “PAM1154/KPC-2 Biapenem MPC64” value in experiment [1] was 1.25. Besides, the Ki in experiment [2] is less than 100 nM; in experiment [3], less than 100 nM; in experiment [4], 100 to 1000 nM; in experiment [5] it was less than 100 nM; in experiment [6], less than 100 nM; in [7] it was less than 100 nM. Further, the Ki was less than 100 nM in experiment [9], less than 100 nM in [10] and greater than 1000 nM in experiment [11]. In experiment [8], the “PAM1032/KPC-2 Biapenem MPC64” value worked out at 5.
`COc1ccc2c(c1C(=O)O)OB(O)[C@@H]1C[C@H]21` [Compound 3, (1aR,7bS)-2-hydroxy-5-methoxy-1a,7b-dihydro-1H-cyclopropa[c][1,2]benzoxaborinine-4-carboxylic acid]: in [1], the “PAM1154/KPC-2 Biapenem MPC64” value was 2.5. The Ki in experiment [2], in experiment [3], in [4], in experiment [5], in experiment [6] and in [7] was less than 100 nM throughout. For the same molecule, the Ki in experiment [9], in [10] and in experiment [11] was less than 100 nM throughout. In addition, the “PAM1032/KPC-2 Biapenem MPC64” value in [8] is 5.
`O=C(O)c1c(F)ccc2c1OB(O)CC21CC1` [Compound 15, 8-fluoro-4,4-dihydroxy-spiro[5-oxa-4-boranuidabicyclo[4.4.0]deca-1(6),7,9-triene-2,1′-cyclopropane]-7-carboxylic acid]: in experiment [1], the “PAM1154/KPC-2 Biapenem MPC64” value turned out to be 1.25. Besides, the inhibition constant (Ki) in experiment [2] is less than 100 nM; in experiment [3], less than 100 nM; in experiment [4] it was 100 to 1000 nM; in [5], greater than 1000 nM; in experiment [6] it was less than 100 nM; in experiment [7], less than 100 nM. Further, the Ki in experiment [9] was less than 100 nM; in [10], less than 100 nM; in experiment [11], greater than 1000 nM. Also, in experiment [8], the “PAM1032/KPC-2 Biapenem MPC64” value is 5.
Regarding `COc1ccc2c(c1C(=O)O)OB(O)C1C2C1(F)F` (stereo not drawn) [Compound 5, 1,1-Difluoro-2-hydroxy-5-methoxy-1a,7b-dihydrocyclopropa[c][1,2]benzoxaborinine-4-carboxylic acid], the “PAM1154/KPC-2 Biapenem MPC64” value in experiment [1] worked out at 10. Moreover, the inhibitory constant (Ki) in experiment [2] was 100 to 1000 nM; in experiment [3], greater than 1000 nM; in experiment [4] it was 100 to 1000 nM; in experiment [5] it was greater than 1000 nM; in experiment [6] it was less than 100 nM; in [7], less than 100 nM. Also, the Ki in [9] was less than 100 nM; in experiment [10], less than 100 nM; in experiment [11], greater than 1000 nM. In addition, in experiment [8], the “PAM1032/KPC-2 Biapenem MPC64” value stood at 20.
As to `COc1ccc2c(c1C(=O)O)OB(O)[C@H]1C[C@@H]21` [Compound 2, (1aS,7bR)-2-hydroxy-5-methoxy-1a,7b-dihydro-1H-cyclopropa[c][1,2]benzoxaborinine-4-carboxylic acid], the “PAM1154/KPC-2 Biapenem MPC64” value in experiment [1] was found to be 1.25. Besides, the Ki in experiment [2] was less than 100 nM; in experiment [3], less than 100 nM; in experiment [4], 100 to 1000 nM; in experiment [5] it was 100 to 1000 nM; in experiment [6] it was less than 100 nM; in experiment [7], less than 100 nM. For the same molecule, the Ki in [9] was less than 100 nM; in experiment [10] it was less than 100 nM; in [11], greater than 1000 nM. Moreover, the “PAM1032/KPC-2 Biapenem MPC64” value in experiment [8] turned out to be 2.5.
Consider `O=C(O)c1cccc2c1OB(O)[C@H]1C[C@@H]21` [Compound 18, (1aS,7bR)-2,2-dihydroxy-1a,7b-dihydro-1H-cyclopropa[c][1,2]benzoxaborinine-4-carboxylic acid], for which the “PAM1154/KPC-2 Biapenem MPC64” value in experiment [1] amounted to 0.3. For the same molecule, the Ki in experiment [2] is 100 to 1000 nM; in [3], 100 to 1000 nM; in experiment [4], less than 100 nM; in [5], 100 to 1000 nM; in [6] it was less than 100 nM; in experiment [7] it was less than 100 nM. For the same molecule, the values for the Ki in experiment [9], in [10] and in [11] were less than 100 nM, 100 to 1000 nM and greater than 1000 nM, respectively. The “PAM1032/KPC-2 Biapenem MPC64” value in experiment [8] came to 5.
Take `COc1ccc2c(c1C(=O)O)OB(O)C1CC21` (stereo not drawn) [Compound 1, 2-Hydroxy-5-methoxy-1a,7b-dihydro-1H-cyclopropa[c][1,2]benzoxaborinine-4-carboxylic acid]: the “PAM1154/KPC-2 Biapenem MPC64” value in experiment [1] came to 1.25. The Ki in experiment [2], in experiment [3], in experiment [4], in experiment [5], in [6] and in experiment [7] was less than 100 nM in each case. The Ki in experiment [9], in [10] and in experiment [11] was less than 100 nM each time. In experiment [8], the “PAM1032/KPC-2 Biapenem MPC64” value was found to be 2.5.
Regarding `O=C(O)c1c(OCCF)ccc2c1OB(O)C1CC21` (stereo not drawn) [Compound 17, 5-(2-fluoroethoxy)-2,2-dihydroxy-1a,7b-dihydro-1H-cyclopropa[c][1,2]benzoxaborinine-4-carboxylic acid], the “PAM1154/KPC-2 Biapenem MPC64” value in experiment [1] came out at 5. Also, the Ki in experiment [2], in [3], in experiment [4], in experiment [5], in experiment [6] and in [7] was less than 100 nM each time. Also, the Ki in [9], in experiment [10] and in experiment [11] was less than 100 nM throughout. Besides, the “PAM1032/KPC-2 Biapenem MPC64” value in [8] was determined as 20.
As to `COc1ccc2c(c1C(=O)O)OB(O)C=C2` [Compound 9, 2-Hydroxy-7-methoxy-1,2-benzoxaborinine-8-carboxylic acid], the “PAM1154/KPC-2 Biapenem MPC64” value in experiment [1] worked out at 1.25. In addition, the Ki is less than 100 nM in experiment [2]; 100 to 1000 nM in [3]; greater than 1000 nM in experiment [4]; greater than 1000 nM in experiment [5]; less than 100 nM in experiment [7]; less than 100 nM in experiment [9]. Also, the Ki was less than 100 nM in experiment [10] and greater than 1000 nM in experiment [11]. The “PAM1032/KPC-2 Biapenem MPC64” value in experiment [8] was greater than 10.

What is called Ki is a measure of affinity in units of concentration, obtained from inhibition or displacement.
